The results in this text go back to ChEMBL document CHEMBL2440112, “Structure-activity relationships of the aromatic site in novel anticonvulsant pyrrolo[1,2-a]pyrazine derivatives” (Bioorg Med Chem Lett, 2013).

Active and inactive are the calls of the source. The rule behind the calls is not given here.

Series [1] concerns Rattus norvegicus. Description: Anticonvulsant activity in po dosed albino Sprague-Dawley rat assessed as protection against maximal electroshock-induced seizures after […] to 4 hrs. The format is functional, organism-based. A general note: The maximal electroshock test induces tonic seizures with an electrical stimulus.
The subject of series [2] is Mus musculus. Briefly: Neurotoxicity in albino mouse assessed as minimal motor impairment at 100 mg/kg, ip after 4 hrs by rotorod test. The format is toxicity, organism-based. Also noted: dose 100 mg/kg, route intraperitoneal. The conditions noted are these: in vivo. For orientation: In the rotarod test animals must keep their balance on a rotating rod.
The test system of series [3] is Mus musculus. Description: Neurotoxicity in albino mouse assessed as minimal motor impairment at 100 mg/kg, ip after 1 hr by rotorod test. Also noted: dose 100 mg/kg, route intraperitoneal. It counts as toxicity, organism-based. The conditions noted are these: in vivo.
Series [4] concerns Mus musculus. Briefly: Neurotoxicity in albino mouse assessed as minimal motor impairment at 100 mg/kg, ip after 0.5 hrs by rotorod test. The conditions noted are these: in vivo. More on the design: dose 100 mg/kg, route intraperitoneal. It counts as toxicity, organism-based.
In series [5] the test system is Mus musculus. Description: Neurotoxicity in albino mouse assessed as minimal motor impairment at 100 mg/kg, ip after 0.25 hrs by rotorod test. The format is toxicity, organism-based. More on the design: dose 100 mg/kg, route intraperitoneal. As to conditions: in vivo.
Series [6] concerns Mus musculus. Description: Anticonvulsant activity in albino mouse assessed as protection against subcutaneous metrazole-induced seizures at 100 mg/kg, ip after 4 hrs. The format is functional, organism-based. Also noted: dose 100 mg/kg.
Series [7] deals with Mus musculus. Description: Anticonvulsant activity in albino mouse assessed as protection against subcutaneous metrazole-induced seizures at 300 mg/kg, ip after 0.5 hrs. It counts as functional, organism-based. Also noted: dose 300 mg/kg.
Series [8] concerns Mus musculus. Description: Anticonvulsant activity in albino mouse assessed as protection against subcutaneous metrazole-induced seizures at 100 mg/kg, ip after 0.5 hrs. Also noted: dose 100 mg/kg. The format is functional, organism-based.
Series [9] deals with Mus musculus. Description: Anticonvulsant activity in albino mouse assessed as protection against maximal electroshock-induced seizures at 100 mg/kg, ip after 4 hrs. It counts as functional, organism-based. More on the design: dose 100 mg/kg.
Series [10] has as its system Mus musculus. Briefly: Anticonvulsant activity in albino mouse assessed as protection against maximal electroshock-induced seizures at 100 mg/kg, ip after 1 hr. More on the design: dose 100 mg/kg. The format is functional, organism-based.
Series [11] deals with Mus musculus. Briefly: Anticonvulsant activity in albino mouse assessed as protection against maximal electroshock-induced seizures at 100 mg/kg, ip after 0.5 hrs. More on the design: dose 100 mg/kg. The format is functional, organism-based.
Series [12] deals with Mus musculus. Briefly: Anticonvulsant activity in albino mouse assessed as protection against maximal electroshock-induced seizures at 100 mg/kg, ip after 0.25 hrs. Also noted: dose 100 mg/kg. It counts as functional, organism-based.
Series [13] deals with Rattus norvegicus. Description: Toxicity in albino Sprague-Dawley rat pilocarpine-induced status prevention model assessed as weight change in non-protected animal at 200 mg/kg, ip administered 30 mins before pilocarpine challenge. It counts as organism-based. Also noted: dose 200 mg/kg, route intraperitoneal. As to conditions: in vivo, 0.5 h.
Series [14] relates to Rattus norvegicus. Briefly: Toxicity in albino Sprague-Dawley rat pilocarpine-induced status prevention model assessed as weight change in non-protected animal at 200 mg/kg, ip followed by immediately administered pilocarpine. More on the design: dose 200 mg/kg, route intraperitoneal. As to conditions: in vivo. It counts as organism-based.
For series [15], the system named is Rattus norvegicus. Briefly: Toxicity in albino Sprague-Dawley rat pilocarpine-induced status prevention model assessed as weight change in protected animal at 200 mg/kg, ip administered 30 mins before pilocarpine challenge. It counts as organism-based. Also noted: dose 200 mg/kg, route intraperitoneal. As to conditions: in vivo, 0.5 h.
Series [16] deals with Rattus norvegicus. Description: Toxicity in albino Sprague-Dawley rat pilocarpine-induced status prevention model assessed as weight change in protected animal at 200 mg/kg, ip followed by immediately administered pilocarpine. Also noted: dose 200 mg/kg, route intraperitoneal. As to conditions: in vivo. The format is organism-based.
Series [17] has as its system Mus musculus. Description: Anticonvulsant activity in albino mouse assessed as protection against 6 Hz psychomotor seizure at 100 mg/kg, ip after 4 hrs by minimal clonic seizure test. More on the design: dose 100 mg/kg. It counts as functional, organism-based.
For series [18], the system named is Mus musculus. Briefly: Anticonvulsant activity in albino mouse assessed as protection against 6 Hz psychomotor seizure at 100 mg/kg, ip after 2 hrs by minimal clonic seizure test. More on the design: dose 100 mg/kg. The format is functional, organism-based.
In series [19] the test system is Mus musculus. Briefly: Anticonvulsant activity in albino mouse assessed as protection against 6 Hz psychomotor seizure at 100 mg/kg, ip after 1 hr by minimal clonic seizure test. It counts as functional, organism-based. More on the design: dose 100 mg/kg.
For series [20], the system named is Mus musculus. Description: Anticonvulsant activity in albino mouse assessed as protection against 6 Hz psychomotor seizure at 100 mg/kg, ip after 0.5 hrs by minimal clonic seizure test. More on the design: dose 100 mg/kg. It counts as functional, organism-based.
Series [21] concerns Mus musculus. Briefly: Anticonvulsant activity in albino mouse assessed as protection against 6 Hz psychomotor seizure at 100 mg/kg, ip after 0.25 hrs by minimal clonic seizure test. The format is functional, organism-based. More on the design: dose 100 mg/kg.
Series [22] concerns Mus musculus. Description: Anticonvulsant activity in ip dosed albino mouse assessed as protection against 6 Hz psychomotor seizure by minimal clonic seizure test. It counts as functional.
Series [23] is described as follows: Neurotoxicity in ip dosed albino mouse minimal clonic seizure model assessed as minimal motor impairment by rotorod test. It counts as toxicity, organism-based. The conditions noted are these: in vivo.
The test system of series [24] is Rattus norvegicus. Briefly: Neurotoxicity in albino Sprague-Dawley rat assessed as minimal motor impairment at 30 mg/kg, ip after 4 hrs by rotorod test. The format is toxicity, organism-based. Also noted: dose 30 mg/kg, route intraperitoneal. The conditions noted are these: in vivo.
The subject of series [25] is Rattus norvegicus. Briefly: Neurotoxicity in albino Sprague-Dawley rat assessed as minimal motor impairment at 30 mg/kg, ip after 2 hrs by rotorod test. The format is toxicity, organism-based. More on the design: dose 30 mg/kg, route intraperitoneal. The conditions noted are these: in vivo.
The test system of series [26] is Rattus norvegicus. Description: Neurotoxicity in albino Sprague-Dawley rat assessed as minimal motor impairment at 30 mg/kg, ip after 1 hr by rotorod test. It counts as toxicity, organism-based. More on the design: dose 30 mg/kg, route intraperitoneal. As to conditions: in vivo.
Series [27] relates to Rattus norvegicus. Briefly: Neurotoxicity in albino Sprague-Dawley rat assessed as minimal motor impairment at 30 mg/kg, ip after 0.5 hrs by rotorod test. It counts as toxicity, organism-based. As to conditions: in vivo. Also noted: dose 30 mg/kg, route intraperitoneal.
In series [28] the test system is Rattus norvegicus. Description: Neurotoxicity in albino Sprague-Dawley rat assessed as minimal motor impairment at 30 mg/kg, ip after 0.25 hrs by rotorod test. The format is toxicity, organism-based. Also noted: dose 30 mg/kg, route intraperitoneal. As to conditions: in vivo.
Series [29] is filed under the species Mus musculus. Description: Protective index, ratio of TD50 for albino mouse minimal clonic seizure model to ED50 for albino mouse assessed as protection against 6 Hz psychomotor seizure. The format is functional.
Series [30] relates to Mus musculus. Briefly: Anticonvulsant activity in ip dosed albino mouse assessed as time of peak effect for protection against 6 Hz psychomotor seizure by minimal clonic seizure test. The format is functional.
Series [31] deals with Rattus norvegicus. Briefly: Anticonvulsant activity in albino Sprague-Dawley rat pilocarpine-induced status prevention model by measuring post-first stage 3 seizure at 200 mg/kg, ip followed by immediately administered pilocarpine. It counts as functional, organism-based. More on the design: dose 200 mg/kg.
For series [32], the system named is Rattus norvegicus. Briefly: Anticonvulsant activity in albino Sprague-Dawley rat pilocarpine-induced status prevention model by measuring post-first stage 3 seizure at 200 mg/kg, ip administered 30 mins before pilocarpine challenge. It counts as functional, organism-based. Also noted: dose 200 mg/kg.
Series [33] has as its system Rattus norvegicus. Description: Anticonvulsant activity in albino Sprague-Dawley rat assessed as protection against maximal electroshock-induced seizures at 30 mg/kg, ip after 4 hrs. It counts as functional, organism-based. More on the design: dose 30 mg/kg.
Series [34] has as its system Rattus norvegicus. Description: Anticonvulsant activity in albino Sprague-Dawley rat assessed as protection against maximal electroshock-induced seizures at 30 mg/kg, ip after 2 hrs. It counts as functional, organism-based. More on the design: dose 30 mg/kg.
Series [35] relates to Rattus norvegicus. Description: Anticonvulsant activity in albino Sprague-Dawley rat assessed as protection against maximal electroshock-induced seizures at 30 mg/kg, ip after 1 hr. It counts as functional, organism-based. Also noted: dose 30 mg/kg.
Series [36] relates to Rattus norvegicus. Briefly: Anticonvulsant activity in albino Sprague-Dawley rat assessed as protection against maximal electroshock-induced seizures at 30 mg/kg, ip after 0.5 hrs. It counts as functional, organism-based. Also noted: dose 30 mg/kg.
Series [37] relates to Rattus norvegicus. Briefly: Anticonvulsant activity in albino Sprague-Dawley rat assessed as protection against maximal electroshock-induced seizures at 30 mg/kg, ip after 0.25 hrs. The format is functional, organism-based. Also noted: dose 30 mg/kg.

As to `Cl.O=C1NC(=O)[C@@H]2CCCN2[C@H]1c1ccccc1Cl`, the outcome in the series with Rattus norvegicus [1], with Mus musculus [6], in the series with Mus musculus [8], in the series on Mus musculus [9], with Mus musculus [10] and in the series on Mus musculus [11] was inactive. In addition, the outcome in the series on Mus musculus [12] was inactive. Moreover, the Activity result with Mus musculus [2], with Mus musculus [3], in the series on Mus musculus [4] and with Mus musculus [5] was “Non-toxic” in each case. For the same compound, the outcome with Mus musculus [7] was Active.

One may read the ED50 as the dose that gives a 50% effect, or the effect in half of the subjects. The term TD50 denotes the dose at which the toxic effect under study appears in half of the subjects. As for `O=C1NC(=O)[C@@H]2CCCN2[C@H]1c1ccc(Cl)cc1`, the Activity was -31.4 g with Rattus norvegicus [13]; 15 g with Rattus norvegicus [14]; -30 g with Rattus norvegicus [15]; -3.6 g with Rattus norvegicus [16]; “Non-toxic” in the series with Rattus norvegicus [24]; “Non-toxic” in the series with Rattus norvegicus [25]. Besides, the Activity result in the series on Rattus norvegicus [26], in the series on Rattus norvegicus [27], with Rattus norvegicus [28], in the series with Mus musculus [2], in the series with Mus musculus [3] and with Mus musculus [4] was “Non-toxic” each time. Further, in the series with Mus musculus [5], the Activity entry was “Non-toxic”. Besides, the result in the series with Mus musculus [17], in the series on Rattus norvegicus [1], in the series with Rattus norvegicus [32], with Rattus norvegicus [33], with Rattus norvegicus [34] and with Rattus norvegicus [35] was inactive. Moreover, the result with Mus musculus [6], with Mus musculus [8], in the series on Mus musculus [9], in the series on Mus musculus [10] and in the series on Mus musculus [11] was inactive. The result in the series with Mus musculus [18], in the series on Mus musculus [19], in the series with Mus musculus [20], in the series with Mus musculus [21], in the series on Rattus norvegicus [31] and in the series with Rattus norvegicus [36] was Active. Besides, the result with Rattus norvegicus [37] and in the series with Mus musculus [12] was Active. In addition, in the series with Mus musculus [22], the 50% effective dose (ED50) was 32.2 mg/kg. Besides, in [23], the TD50 came out at 212 mg/kg. Moreover, the “Ratio TD50/ED50” value in the series filed under Mus musculus [29] was determined as 6.6. Further, the Time in the series with Mus musculus [30] is 0.25 h.
